Test results taken from US11739070B2, “C5A receptor modulators” (IDORSIA PHARMACEUTICALS LTD, priority 2018, dated 2023).

Each compound was assayed against T1, C5AR1 (Homo sapiens, UniProt P21730) (assay: hC5a DISCO IC50 assay (PathHunter beta-arrestin, antagonist mode)). Settings: CHO-K1 C5AR1 beta-arrestin cell line; antagonist vs 1-10 nM C5a agonist; geometric mean values; read-out: C5aR IC50.
T1 construct: host or cells: CHO-K1
T1 sequence (P21730 1-350): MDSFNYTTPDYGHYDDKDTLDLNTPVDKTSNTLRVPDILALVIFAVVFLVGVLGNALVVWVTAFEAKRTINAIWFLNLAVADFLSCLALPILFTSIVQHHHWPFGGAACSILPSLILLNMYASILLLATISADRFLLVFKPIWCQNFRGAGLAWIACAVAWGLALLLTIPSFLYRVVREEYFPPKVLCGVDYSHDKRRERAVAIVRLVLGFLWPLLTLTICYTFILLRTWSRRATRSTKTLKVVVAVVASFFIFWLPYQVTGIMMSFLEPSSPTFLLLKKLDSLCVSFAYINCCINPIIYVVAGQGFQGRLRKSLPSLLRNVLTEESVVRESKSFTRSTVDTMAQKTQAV
Assay type: cell-based
How it was run: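 Antagonist added first, then 1-10 nM C5a agonist; cells incubated 1.5 h at 37 °C. Beta-arrestin signal developed with PathHunter detection reagent, 45 min at RT. IC50 in nmol/l from serial antagonist dilutions, reported as geometric mean of several measurements.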

| SMILES | IC50 [nM] |
| --- | --- |
| COc1cccc2c1n(Cc1nccnc1C(C)C)c(=O)n2C1CCN(c2c(C)cccc2F)CC1 [Example 187, 1-[1-(2-Fluoro-6-methyl-phenyl)-piperidin-4-yl]-3-(3-isopropyl-pyrazin-2-ylmethyl)-4-methoxy-1,3-dihydro-benzoimidazol-2-one] | 26 |
| COc1cccc2c1n(Cc1ccccc1C(F)(F)F)c(=O)n2C1CC2CC1CN2C(=O)OC(C)(C)C (stereo not drawn) [Example 188, 5-[4-Methoxy-2-oxo-3-(2-trifluoromethyl-benzyl)-2,3-dihydro-benzoimidazol-1-yl]-2-aza-bicyclo[2.2.1]heptane-2-carboxylic acid tert-butyl ester] | 313 |
| COc1cccc2c1n(Cc1nccnc1C(C)C)c(=O)n2[C@@H]1CCN(c2c(C)cccc2F)C1 [Example 189, 1-[(R)-1-(2-Fluoro-6-methyl-phenyl)-pyrrolidin-3-yl]-3-(3-isopropyl-pyrazin-2-ylmethyl)-4-methoxy-1,3-dihydro-benzoimidazol-2-one] | 13 |
| COc1cccc2c1n(Cc1ccccc1C(F)(F)F)c(=O)n2C1CC2CC1CN2c1c(C)cccc1F (stereo not drawn) [Example 190, 1-[2-(2-Fluoro-6-methyl-phenyl)-2-aza-bicyclo[2.2.1]hept-5-yl]-4-methoxy-3-(2-trifluoromethyl-benzyl)-1,3-dihydro-benzoimidazol-2-one] | 118 |
| COc1cccc2c1n(Cc1ccccc1C(F)(F)F)c(=O)n2C1C2CC1CN(C(=O)OC(C)(C)C)C2 (stereo not drawn) [Example 191, 6-[4-Methoxy-2-oxo-3-(2-trifluoromethyl-benzyl)-2,3-dihydro-benzoimidazol-1-yl]-3-aza-bicyclo[3.1.1]heptane-3-carboxylic acid tert-butyl ester] | 114 |
| COc1cccc2c1n(Cc1cncnc1C(C)C)c(=O)n2C1CCN(c2c(C)cccc2F)CC1 [Example 192, 1-[1-(2-Fluoro-6-methyl-phenyl)-piperidin-4-yl]-3-(4-isopropyl-pyrimidin-5-ylmethyl)-4-methoxy-1,3-dihydro-benzoimidazol-2-one] | 42 |
| N#Cc1cccc(F)c1N1CC[C@@H](n2c(=O)n(Cc3ccccc3C(F)(F)F)c3c(C(=O)NCCO)cccc32)C1 [Example 193, 1-[(R)-1-(2-Cyano-6-fluoro-phenyl)-pyrrolidin-3-yl]-2-oxo-3-(2-trifluoromethyl-benzyl)-2,3-dihydro-1H-benzoimidazole-4-carboxylic acid (2-hydroxy-ethyl)-amide] | 632 |
| COCCNC(=O)c1cccc2c1n(Cc1ccccc1C(F)(F)F)c(=O)n2[C@@H]1CCN(c2c(F)cccc2C#N)C1 [Example 194, 1-[(R)-1-(2-Cyano-6-fluoro-phenyl)-pyrrolidin-3-yl]-2-oxo-3-(2-trifluoromethyl-benzyl)-2,3-dihydro-1H-benzoimidazole-4-carboxylic acid (2-methoxy-ethyl)-amide] | 1480 |
| COc1cccc2c1n(Cc1cccnc1C(F)(F)F)c(=O)n2[C@@H]1CCN(c2c(C)cccc2F)C1 [Example 195, 1-[(R)-1-(2-Fluoro-6-methyl-phenyl)-pyrrolidin-3-yl]-4-methoxy-3-(2-trifluoromethyl-pyridin-3-ylmethyl)-1,3-dihydro-benzoimidazol-2-one] | 20 |
| COc1cccc2c1n(Cc1ccccc1C(F)(F)F)c(=O)n2C1C2CC1CN(c1c(C)cccc1F)C2 (stereo not drawn) [Example 197, 1-[3-(2-Fluoro-6-methyl-phenyl)-3-aza-bicyclo[3.1.1]hept-6-yl]-4-methoxy-3-(2-trifluoromethyl-benzyl)-1,3-dihydro-benzoimidazol-2-one] | 74 |
| COc1cccc2c1n(Cc1ccccc1C(F)(F)F)c(=O)n2[C@@H]1CCN(c2ccccc2OC(F)(F)F)C1 [Example 201, 4-Methoxy-1-[(R)-1-(2-trifluoromethoxy-phenyl)-pyrrolidin-3-yl]-3-(2-trifluoromethyl-benzyl)-1,3-dihydro-benzoimidazol-2-one] | 31 |
| COc1cccc2c1n(Cc1ncccc1C(F)(F)F)c(=O)n2[C@@H]1CCN(c2c(C)cccc2F)C1 [Example 202, 1-[(R)-1-(2-Fluoro-6-methyl-phenyl)-pyrrolidin-3-yl]-4-methoxy-3-(3-trifluoromethyl-pyridin-2-ylmethyl)-1,3-dihydro-benzoimidazol-2-one] | 2 |
| COc1cccc2c1n(Cc1cnccc1C(F)(F)F)c(=O)n2[C@@H]1CCN(c2c(C)cccc2F)C1 [Example 203, 1-[(R)-1-(2-Fluoro-6-methyl-phenyl)-pyrrolidin-3-yl]-4-methoxy-3-(4-trifluoromethyl-pyridin-3-ylmethyl)-1,3-dihydro-benzoimidazol-2-one] | 6 |
| COCCOc1ccccc1N1CC[C@@H](n2c(=O)n(Cc3ccccc3C(F)(F)F)c3c(OC)cccc32)C1 [Example 204, 4-Methoxy-1-{(R)-1-[2-(2-methoxy-ethoxy)-phenyl]-pyrrolidin-3-yl}-3-(2-trifluoromethyl-benzyl)-1,3-dihydro-benzoimidazol-2-one] | 30 |
| COC1CN(c2nccc3c2n(Cc2ccccc2C(F)(F)F)c(=O)n3[C@@H]2CCN(c3c(C)cccc3F)C2)C1 [Example 205, 1-[(R)-1-(2-Fluoro-6-methyl-phenyl)-pyrrolidin-3-yl]-4-(3-methoxy-azetidin-1-yl)-3-(2-trifluoromethyl-benzyl)-1,3-dihydro-imidazo[4,5-c]pyridin-2-one] | 45 |
| Cc1cccc(F)c1N1CC[C@@H](n2c(=O)n(Cc3ccccc3C(F)(F)F)c3c(N4CCN(C)CC4)nccc32)C1 [Example 206, 1-[(R)-1-(2-Fluoro-6-methyl-phenyl)-pyrrolidin-3-yl]-4-(4-methyl-piperazin-1-yl)-3-(2-trifluoromethyl-benzyl)-1,3-dihydro-imidazo[4,5-c]pyridin-2-one] | 2300 |
| COCCNc1nccc2c1n(Cc1ccccc1C(F)(F)F)c(=O)n2[C@@H]1CCN(c2c(C)cccc2F)C1 [Example 207, 1-[(R)-1-(2-Fluoro-6-methyl-phenyl)-pyrrolidin-3-yl]-4-(2-methoxy-ethylamino)-3-(2-trifluoromethyl-benzyl)-1,3-dihydro-imidazo[4,5-c]pyridin-2-one] | 508 |
| COc1cccc2c1n(Cc1ccccc1OC1CC1)c(=O)n2[C@@H]1CCN(c2c(C)cccc2F)C1 [Example 208, 3-(2-Cyclopropoxy-benzyl)-1-[(R)-1-(2-fluoro-6-methyl-phenyl)-pyrrolidin-3-yl]-4-methoxy-1,3-dihydro-benzoimidazol-2-one] | 19 |
| COc1cccc2c1n(Cc1ccccc1OC1CC1)c(=O)n2C1CCN(c2c(C)cccc2F)CC1 [Example 209, 3-(2-Cyclopropoxy-benzyl)-1-[1-(2-fluoro-6-methyl-phenyl)-piperidin-4-yl]-4-methoxy-1,3-dihydro-benzoimidazol-2-one] | 34 |
| COc1cccc2c1n(Cc1ccccc1C(F)(F)F)c(=O)n2C1CCN(C(=O)OC(C)(C)C)CC1F (stereo not drawn) [Example 210, 3-Fluoro-4-[4-methoxy-2-oxo-3-(2-trifluoromethyl-benzyl)-2,3-dihydro-benzoimidazol-1-yl]-piperidine-1-carboxylic acid tert-butyl ester] | 2290 |
| COc1cccc2c1n(Cc1ccccc1C(F)(F)F)c(=O)n2C1CCN(c2c(C)cccc2F)CC1F (stereo not drawn) [Example 211, 1-[3-Fluoro-1-(2-fluoro-6-methyl-phenyl)-piperidin-4-yl]-4-methoxy-3-(2-trifluoromethyl-benzyl)-1,3-dihydro-benzoimidazol-2-one] | 27 |
